Experiments:
Assay type in all cases: in vivo
[1] = tested on: Alopecurus myosuroides (ALOMY); assay: Pre-emergence herbicidal glasshouse test on Alopecurus myosuroides; details: pre-emergence, 1000 g/h, evaluated after 13 days, five point scale
How it was run: (§1)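 Pre-emergence treatment came one day after sowing, post-emergence treatment after eight days' growth; both used 1000 g/h in a 0.5% Tween 20 acetone/water vehicle. Percent damage, scored 1–5, was read 13 days later.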

Solanum nigrum (SOLNI) [2] = assay: Post-emergence herbicidal glasshouse test on Solanum nigrum; details: post-emergence, 1000 g/h, evaluated after 13 days, five point scale
How it was run: as §1

Solanum nigrum (SOLNI) [3] = assay: Pre-emergence herbicidal glasshouse test on Solanum nigrum; details: pre-emergence, 1000 g/h, evaluated after 13 days, five point scale
How it was run: as §1

[4] = tested on: Ipomoea hederacea (IPOHE); assay: Pre-emergence herbicidal glasshouse test on Ipomoea hederacea; details: pre-emergence, 1000 g/h, evaluated after 13 days, five point scale
How it was run: as §1

Setaria faberi (SETFA) [5] = assay: Pre-emergence herbicidal glasshouse test on Setaria faberi; details: pre-emergence, 1000 g/h, evaluated after 13 days, five point scale
How it was run: as §1

[6] = tested on: Echinochloa crus-galli (ECHCG); assay: Pre-emergence herbicidal glasshouse test on Echinochloa crus-galli; details: pre-emergence, 1000 g/h, evaluated after 13 days, five point scale
How it was run: as §1

[7] = tested on: Alopecurus myosuroides (ALOMY); assay: Post-emergence herbicidal glasshouse test on Alopecurus myosuroides; details: post-emergence, 1000 g/h, evaluated after 13 days, five point scale
How it was run: as §1

[8] = tested on: Amaranthus retoflexus (AMARE); assay: Post-emergence herbicidal glasshouse test on Amaranthus retoflexus; details: post-emergence, 1000 g/h, evaluated after 13 days, five point scale
How it was run: as §1

[9] = tested on: Ipomoea hederacea (IPOHE); assay: Post-emergence herbicidal glasshouse test on Ipomoea hederacea; details: post-emergence, 1000 g/h, evaluated after 13 days, five point scale
How it was run: as §1

[10] = tested on: Amaranthus retoflexus (AMARE); assay: Pre-emergence herbicidal glasshouse test on Amaranthus retoflexus; details: pre-emergence, 1000 g/h, evaluated after 13 days, five point scale
How it was run: as §1

Setaria faberi (SETFA) [11] = assay: Post-emergence herbicidal glasshouse test on Setaria faberi; details: post-emergence, 1000 g/h, evaluated after 13 days, five point scale
How it was run: as §1

[12] = tested on: Echinochloa crus-galli (ECHCG); assay: Post-emergence herbicidal glasshouse test on Echinochloa crus-galli; details: post-emergence, 1000 g/h, evaluated after 13 days, five point scale
How it was run: as §1

Row | SMILES | herbicidal damage, PRE Application ALOMY [1] | herbicidal damage, POST Application SOLNI (Solanum nigrum (SOLNI) [2]) | herbicidal damage, PRE Application SOLNI (Solanum nigrum (SOLNI) [3]) | herbicidal damage, PRE Application IPOHE [4] | herbicidal damage, PRE Application SETFA (Setaria faberi (SETFA) [5]) | herbicidal damage, PRE Application ECHCG [6] | herbicidal damage, POST Application ALOMY [7] | herbicidal damage, POST Application AMARE [8] | herbicidal damage, POST Application IPOHE [9] | herbicidal damage, PRE Application AMARE [10] | herbicidal damage, POST Application SETFA (Setaria faberi (SETFA) [11]) | herbicidal damage, POST Application ECHCG [12]
1 | COc1ccc(-c2cnn(C)c(=O)c2O)c(OC)n1 [Compound 1.153] | 1 (1=0-19% damage) | 4 (4=60-79% damage) | 2 (2=20-39% damage) | 3 (3=40-59% damage) | 1 (1=0-19% damage) | 2 (2=20-39% damage) | 1 (1=0-19% damage) | 2 (2=20-39% damage) | 2 (2=20-39% damage) | 2 (2=20-39% damage) | 1 (1=0-19% damage) | 1 (1=0-19% damage)
2 | Cc1ccc2cc(-c3cnn(C)c(=O)c3O)c(C(F)(F)F)nc2n1 [Compound 1.154] | 2 (2=20-39% damage) | 5 (5=80-100% damage) | 2 (2=20-39% damage) | 5 (5=80-100% damage) | 2 (2=20-39% damage) | 5 (5=80-100% damage) | 4 (4=60-79% damage) | 5 (5=80-100% damage) | 5 (5=80-100% damage) | 5 (5=80-100% damage) | 5 (5=80-100% damage) | 5 (5=80-100% damage)
3 | CS(=O)(=O)c1ccc(-c2cnn(C3CC3)c(=O)c2O)c(Cl)c1C1=NOCC1 [Compound 1.158] | 3 (3=40-59% damage) | 5 (5=80-100% damage) | 4 (4=60-79% damage) | 3 (3=40-59% damage) | 3 (3=40-59% damage) | 5 (5=80-100% damage) | 5 (5=80-100% damage) | 5 (5=80-100% damage) | 5 (5=80-100% damage) | 5 (5=80-100% damage) | 5 (5=80-100% damage) | 5 (5=80-100% damage)
4 | Cn1ncc(-n2ccc(C(F)(F)F)c(-c3ccccc3Cl)c2=O)c(O)c1=O [Compound 1.159] | 5 (5=80-100% damage) | 5 (5=80-100% damage) | 5 (5=80-100% damage) | 1 (1=0-19% damage) | 5 (5=80-100% damage) | 5 (5=80-100% damage) | 4 (4=60-79% damage) | 5 (5=80-100% damage) | 5 (5=80-100% damage) | 5 (5=80-100% damage) | 5 (5=80-100% damage) | 5 (5=80-100% damage)
5 | Cn1ncc(-c2cc(Br)c(Br)cc2S(C)(=O)=O)c(O)c1=O [Compound 1.160] | 1 (1=0-19% damage) | 5 (5=80-100% damage) | 4 (4=60-79% damage) | 2 (2=20-39% damage) | 1 (1=0-19% damage) | 5 (5=80-100% damage) | 3 (3=40-59% damage) | 5 (5=80-100% damage) | 5 (5=80-100% damage) | 5 (5=80-100% damage) | 4 (4=60-79% damage) | 5 (5=80-100% damage)
6 | Cn1ncc(-c2c(S(C)(=O)=O)ccc(Br)c2Br)c(O)c1=O [Compound 1.161] | 1 (1=0-19% damage) | 4 (4=60-79% damage) | 1 (1=0-19% damage) | 1 (1=0-19% damage) | 1 (1=0-19% damage) | 1 (1=0-19% damage) | 3 (3=40-59% damage) | 5 (5=80-100% damage) | 2 (2=20-39% damage) | 3 (3=40-59% damage) | 4 (4=60-79% damage) | 4 (4=60-79% damage)
7 | C#CCn1ncc(-c2ccc(S(C)(=O)=O)c(C3=NOCC3)c2C)c(O)c1=O [Compound 1.163] | 5 (5=80-100% damage) | 5 (5=80-100% damage) | 5 (5=80-100% damage) | 4 (4=60-79% damage) | 5 (5=80-100% damage) | 5 (5=80-100% damage) | 5 (5=80-100% damage) | 5 (5=80-100% damage) | 5 (5=80-100% damage) | 5 (5=80-100% damage) | 5 (5=80-100% damage) | 5 (5=80-100% damage)
8 | Cn1ncc(-c2cc3cc(N4CCOCC4)cnc3nc2C(F)(F)F)c(O)c1=O [Compound 1.164] | 1 (1=0-19% damage) | 5 (5=80-100% damage) | 2 (2=20-39% damage) | 4 (4=60-79% damage) | 2 (2=20-39% damage) | 4 (4=60-79% damage) | 1 (1=0-19% damage) | 5 (5=80-100% damage) | 5 (5=80-100% damage) | 3 (3=40-59% damage) | 5 (5=80-100% damage) | 5 (5=80-100% damage)
